Laboratory results taken from patent US20240390382A1, “METHOD FOR TREATING CANCER” (THE CHILDREN'S MEDICAL CENTER CORPORATION, priority 2021, published 2024).
“Also recorded” adds a separate entry of the source.

Tests used:
[1] = test system: CTR9 edited CD34+HSPCs; assay: HSC phenotyping (flow cytometry) of CTR9 edited CD34+ HSPCs, chemical rescue experiment; assay type: cell-based, human; conditions: inhibitor used at the concentration of IC50, vs DMSO
Method: (§1) HEK293T cells are cultured in DMEM supplemented with 10% FBS and 1× penicillin/streptomycin. Human CD34 HSPCs were purchased from Fred Hutchinson Cancer Institute and cultured in StemSpan serum free culture medium (StemCell Technologies) supplemented with 1×CC100, 2 mM L-glutamine, 100 ng/mL TPO, 1×UM171 and 1× penicillin/streptomycin. For RNP based CRISPR editing of CD34+HSPCs, chemically synthesized gRNA and Cas9 protein were mixed and set at room temperature for 10 mins to allow the formation of deliverable RNP. The assembled RNP complexes were then delivered into CD34+HSPCs by Lonza 4D Nucleofector with program DZ-100. 48-72 hrs after nucleofection, cells were harvested for genomic DNA and the edited region was PCR amplified and the editing efficiency was analyzed by the ICE analysis from Synthego. Edited CD34+HSPCs were allowed to expand in the culture medium and harvested twice at day 3 and day 6 post-nucleofection. Harvested cells were washed in cold PBS and stained by HSC phenotyping antibody cocktail, which is composed of Brilliant Violet 421 anti-CD34, APC-H7 anti-CD45RA, PE-Cy7 anti-CD90, BB700 anti-CD133, PE anti-EPCR and APC anti-ITGA3 in ice cold FACS buffer (PBS+2% FBS) at 1:60 for 30 minutes in ice. Stained cells were then analyzed by BD LSRII flow cytometer. For the chemical rescue experiment, CDK9 inhibitors (LDCO000067 and AZD4573) and the YEATS domain inhibitor of ENL/ILLT3 (SR-0813) were used at the concentration of IC50.

[2] = test system: key leading edge genes (MLLT3 regulated) in CTR9 edited cells; assay: qRT-PCR analysis of key leading edge genes in CTR9 edited cells; assay type: cell-based, human; conditions: two independent guides, inhibitor at the concentration of IC50, vs DMSO
Method: as §1, with “For the chemical rescue experiment, CDK9 inhibitors (LDCO000067 and AZD4573) and the YEATS domain inhibitor of ENL/ILLT3 (SR-0813) were used at the concentration of IC50.” left out
RNA from HSPCs was harvested by Qiagen RNeasy kit and quantified by nanodrop. […]

## O=C(NC1CCC1)c1ccc2nc(-c3cccc(NS(=O)(=O)NCCN4CCCCC4)c3)cn2c1 [SR-0813]
[1]; CTR9 edited CD34+ HSPCs
  CTR9-perturbation-mediated HSC expansion (partial loss of CTR9): rescues HSC expansion phenotype; also recorded: completely suppressed
[1]; primary human HSPCs
  impact on the bulk HSPC population (CD34+CD45RA-): without a major impact on the bulk HSPC population
  phenotypic LT- and ST-HSC expansion: suppression of phenotypic LT- and ST-HSC expansion occurred
[2]
  expression of key upregulated target genes (leading edge genes): downregulated many of the key upregulated target genes
